Data from US20030235583A1, “Combined use of a modulator of CD3 and a beta cell resting compound” (priority 2002, published 2003).

How the values were obtained:
[1] = tested on: human islets; assay: apoptosis of human islets incubated in high glucose; type: cell-based; conditions: co-incubated with compound vs not co-incubated
From the text: Another potential way to intervene in the destruction of beta-cells in the development of Type 1 diabetes is by treatment with compounds that inhibit insulin secretion, thereby inducing beta-cell rest.

[2] = tested on: beta-cells; conditions: 3 months treatment; cited from earlier work

Compound | apoptosis, or programmed cell death, of human islets [1] | residual C-peptide, a marker of beta-cell function [2]
CC1(NC2=NS(=O)(=O)c3sc(Cl)cc3N2)CC1 [6-chloro-3-(1-methylcyclopropyl)amino-4H-thieno[3,2-e]-1,2,4-thiadiazine 1,1-dioxide] | significantly less apoptosis | –
CC1=NS(=O)(=O)c2cc(Cl)ccc2N1 [diazoxide] | – | preservation of residual C-peptide
